Measurements published in patent US20020137929A1, “1 - (3-heterocyclylphenyl) isothiourea, -isourea, -guanidine and -amidine herbicidal agents” (Intellectual Property Department, BASF Aktiengesellschaft, priority 1998, published 2002).

Experiments:
[1] = tested on: ORYSAT (Rice, Tebonnet); experiment: Rice tolerance to post-transplant applications, flooded paddy conditions (Table III); format: in vivo, Oryza sativa, (L.) Tebonnet; settings: in vivo
Method: Results of herbicide evaluation are expressed on a rating scale (0-9). The scale is based upon a visual observation of plant stand, vigor, malformation, size, chlorosis and overall plant appearance as compared with a control.
The tolerance of transplanted rice to post-transplanted herbicide applications is determined as follows: two ten-day-old rice seedlings (cv. Tebonnet) are transplanted into silt loam soil in 32 oz. plastic containers with a diameter of 10.5 cm and no drainage holes. After transplanting, the containers are flooded and the water level is maintained at 1.5 to 3 cm above the soil surface. Three days after transplanting, the flooded soil surface of the containers is treated with the selected aqueous/acetone 50/50 v/v mixture containing the test compounds to provide the equivalent of about 0.0313 to 0.500 kg/ha of active ingredient. The treated containers are placed on greenhouse benches, watered such that the water level is maintained as stated above, and cared for in accordance with conventional greenhouse procedures. Three to four weeks after treatment, the test is terminated and each container is examined and herbicidal effect rated according to the rating system provided in Example 37. The compounds evaluated are reported by compound number given in Example 37.
Plant species employed in this example are reported by header abbreviation, common name and scientific name.

[2] = tested on: CYPSE (Flatsedge); experiment: Preemergence weed control under flooded paddy conditions; format: in vivo, Cyperus serotinus; settings: rated 3-4 weeks after treatment
In short: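 First, seeds or propagules go into the top 0.5 cm of silt loam; next, water is held 1.5 to 3 cm over the soil; then compound (50/50 acetone/water) is pipetted into it at about 0.0313 to 0.500 kg/ha; finally plants are rated visually 0-9 after three to four weeks.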

[3] = tested on: ORYSAT (Rice, Tebonnet); experiment: Preemergence herbicidal evaluation; format: in vivo, Oryza sativa, (L.) Tebonnet; settings: rated 4-5 weeks after treatment, rating scale 0-9
In short: (§1)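 Steps: mix seeds into potting soil; plant atop ~1 inch soil; spray compound in aqueous acetone (~0.0156-0.500 kg/ha equivalent); maintain in greenhouse with watering; rate visually 0-9 versus control at 4-5 weeks.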

[4] = tested on: CHEAL (Lambsquarters, Common); experiment: Preemergence herbicidal evaluation; format: in vivo, Chenopodium album; settings: rated 4-5 weeks after treatment, rating scale 0-9
In short: as §1

[5] = tested on: ECHORC (Watergrass (Calif.)); experiment: Preemergence weed control under flooded paddy conditions; format: in vivo, Echinochloa oryzoides; settings: rated 3-4 weeks after treatment
In short: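 Visual injury scored 0-9 against control three to four weeks post-treatment, greenhouse-grown. Application: acetone/water (50/50) solutions dosed directly into flood water (1.5-3 cm over silt loam, planted top 0.5 cm), roughly 0.0313 to 0.500 kg/ha active ingredient.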

[6] = tested on: ECHCG (Barnyardgrass); experiment: Postemergence herbicidal evaluation; format: in vivo, Echinochloa crus-galli; settings: postemergence
In short: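 Seedlings grown about two weeks were sprayed at 40 psi with compound dispersed in 50/50 acetone/water plus 0.5% TWEEN 20, at about 0.0156 to 0.500 kg/ha. Plants were kept in the greenhouse and scored 4–5 weeks later on a 0–9 visual scale against untreated controls.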

Structure (SMILES)	herbicidal effect rating, ORYSAT (rice tolerance) [1]	herbicidal effect rating, CYPSE ([2]; 0.0313 kg/ha)	herbicidal effect rating, CYPSE ([2]; 0.0625 kg/ha)	herbicidal effect rating, CYPSE ([2]; 0.1250 kg/ha)	herbicidal effect rating, CYPSE ([2]; 0.2500 kg/ha)	Preemergence herbicidal rating ORYSAT ([3]; rate 0.0156 kg/ha)	Preemergence herbicidal rating ORYSAT ([3]; rate 0.0313 kg/ha)	Preemergence herbicidal rating ORYSAT ([3]; rate 0.0625 kg/ha)	Preemergence herbicidal rating ORYSAT ([3]; rate 0.1250 kg/ha)	Preemergence herbicidal rating ORYSAT ([3]; rate 0.2500 kg/ha)	Preemergence herbicidal rating CHEAL ([4]; rate 0.0156 kg/ha)	Preemergence herbicidal rating CHEAL ([4]; rate 0.0313 kg/ha)	Preemergence herbicidal rating CHEAL ([4]; rate 0.0625 kg/ha)	Preemergence herbicidal rating CHEAL ([4]; rate 0.1250 kg/ha)	Preemergence herbicidal rating CHEAL ([4]; rate 0.2500 kg/ha)	herbicidal effect rating, ECHORC ([5]; 0.0313 kg/ha)	herbicidal effect rating, ECHORC ([5]; 0.0625 kg/ha)	herbicidal effect rating, ECHORC ([5]; 0.1250 kg/ha)	herbicidal effect rating, ECHORC ([5]; 0.2500 kg/ha)	Herbicidal rating ECHCG ([6]; rate 0.0156 kg/ha)	further results
CN(C)c1ccc(CN2C(=O)CSC2=Nc2cc(-n3c(=O)cc(C(F)(F)F)n(C)c3=O)c(F)cc2Cl)cc1 [Compound 138, 3-{4-Chloro-5-{{3-[p-(dimethylamino)benzyl]-4-oxo-2-thiazolidinylidene}amino}-2-fluorophenyl}-1-methyl-6-(trifluoromethyl)-2,4(1H,3H)-pyrimidinedione]	3.0	0.0	0.0	0.0	0.0	0.0	0.0	0.0	0.0	0.0	1.0	9.0	7.0	9.0	9.0	7.0	9.0	9.0	9.0	1.0	Herbicidal rating ECHCG ([6]; rate 0.0313 kg/ha): 1.0; Herbicidal rating ECHCG ([6]; rate 0.0625 kg/ha): 2.0
Cn1c(C(F)(F)F)cc(=O)n(-c2cc(N=C3SCC(=O)N3Cc3ccc(C(F)(F)F)cc3)c(Cl)cc2F)c1=O [Compound 141, 3-{4-Chloro-2-fluoro-5-{{3-[p-(trifluoromethyl)benzyl]-4-oxo-2-thiazolidinylidene}-amino}phenyl}-1-methyl-6-(trifluoromethyl)-2,4 (1H, 3H)-pyrimidinedione]	0.0	0.0	0.0	0.0	0.0	0.0	0.0	0.0	0.0	0.0	3.0	9.0	9.0	9.0	9.0	5.0	5.0	7.0	7.0	0.0	Herbicidal rating ECHCG ([6]; rate 0.0313 kg/ha): 0.0; Herbicidal rating ECHCG ([6]; rate 0.0625 kg/ha): 0.0
